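In this assay, cells in 96-well plates receive the compound at five concentrations for 48 hours. Endpoints are linearly interpolated between the surrounding concentrations. The concentration for 50% growth inhibition is given as GI50.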 Activity calls are given as the source filed them. Cut-off read from the data, not from the text of the source: active = GI50 up to about 1.1 µM and inactive = higher.
What was measured:
Test in all cases: inhibition of tumour cell growth, NCI panel, 48 h
[1] = tested on: SW-620
[2] = tested on: SK-MEL-5
[3] = tested on: BT-549
[4] = tested on: NCI-H23
[5] = tested on: COLO 205
[6] = tested on: SR
[7] = tested on: SF-268
[8] = tested on: NCI-H226
[9] = tested on: MOLT-4
[10] = tested on: SF-295
[11] = tested on: MDA-MB-231
[12] = tested on: EKVX
[13] = tested on: Malme-3M
[14] = tested on: SNB-19
[15] = tested on: OVCAR-3
[16] = tested on: NCI/ADR-RES
[17] = tested on: IGROV-1
[18] = tested on: RPMI-8226
[19] = tested on: K562
[20] = tested on: HT-29

Row | SMILES | GI50 [1] | GI50 [2] | GI50 [3] | GI50 [4] | GI50 [5] | GI50 [6] | GI50 [7] | GI50 [8] | GI50 [9] | GI50 [10] | GI50 [11] | GI50 [12] | GI50 [13] | GI50 [14] | GI50 [15] | GI50 [16] | GI50 [17] | GI50 [18] | GI50 [19] | GI50 [20]
1 | O=c1cc(-c2ccccc2)oc2c(-c3cc(Cl)cc4c(=O)cc(-c5ccccc5)oc34)cc(Cl)cc12 | 19.9 µM (inactive) | 15.5 µM (inactive) | 29.6 µM (inactive) | 25 µM (inactive) | 31.8 µM (inactive) | > 100 µM (inactive) | 32.8 µM (inactive) | 21.5 µM (inactive) | 10.2 µM (inactive) | 22.4 µM (inactive) | 32.7 µM (inactive) | 22.2 µM (inactive) | 27 µM (inactive) | 29.4 µM (inactive) | 24.3 µM (inactive) | 28.8 µM (inactive) | 22.5 µM (inactive) | 25.2 µM (inactive) | 6.87 µM (inactive) | 34 µM (inactive)
2 | O=c1[nH]n(CCc2ccccc2CCl)c2ccc([N+](=O)[O-])cc12 | > 100 µM (inactive) | 29.7 µM (inactive) | 33.3 µM (inactive) | 89.9 µM (inactive) | > 100 µM (inactive) | 50.9 µM (inactive) | > 100 µM (inactive) | 95.9 µM (inactive) | 72.8 µM (inactive) | 52.5 µM (inactive) | 76.2 µM (inactive) | 3.65 µM (inactive) | > 100 µM (inactive) | > 100 µM (inactive) | > 100 µM (inactive) | 31.8 µM (inactive) | 83.9 µM (inactive) | > 100 µM (inactive) | 38.9 µM (inactive) | 88.1 µM (inactive)
3 | Cc1ccc2c(c1)C(C1Cc3c(C)cccc3C1=O)OC2=O (stereo not given) | > 100 µM (inactive) | > 100 µM (inactive) | 86.5 µM (inactive) | > 100 µM (inactive) | > 100 µM (inactive) | 91.6 µM (inactive) | > 100 µM (inactive) | 61.5 µM (inactive) | > 100 µM (inactive) | > 100 µM (inactive) | > 100 µM (inactive) | > 100 µM (inactive) | > 100 µM (inactive) | > 100 µM (inactive) | > 100 µM (inactive) | 40.4 µM (inactive) | > 100 µM (inactive) | 63.2 µM (inactive) | > 100 µM (inactive) | 96.6 µM (inactive)
4 | CCCn1c2ccccc2c2ccc3c(c21)C(=O)C=CC3=O | 1.16 µM (inactive) | > 7.91 µM (inactive) | 2.21 µM (inactive) | 2.58 µM (inactive) | 2.39 µM (inactive) | 0.719 µM (active) | > 6.12 µM (inactive) | 6.38 µM (inactive) | 0.904 µM (active) | > 10 µM (inactive) | 2.06 µM (inactive) | > 5.32 µM (inactive) | 1.83 µM (inactive) | > 10 µM (inactive) | 2.01 µM (inactive) | 2.9 µM (inactive) | 3.31 µM (inactive) | 2.12 µM (inactive) | 0.561 µM (active) | > 10 µM (inactive)
5 | COC12C=CC(C=C1C#N)CC2.COC12C=CC(CC1)CC2=O (stereo not given) | > 100 µM (inactive) | > 100 µM (inactive) | > 100 µM (inactive) | > 100 µM (inactive) | > 100 µM (inactive) | > 100 µM (inactive) | > 100 µM (inactive) | > 100 µM (inactive) | > 100 µM (inactive) | > 100 µM (inactive) | > 100 µM (inactive) | > 100 µM (inactive) | > 100 µM (inactive) | > 100 µM (inactive) | > 100 µM (inactive) | > 100 µM (inactive) | > 100 µM (inactive) | > 100 µM (inactive) | > 100 µM (inactive) | > 100 µM (inactive)
6 | Cc1ccc(-c2c(C#N)c(N)[nH]c(=S)c2C#N)cc1 | 13.6 µM (inactive) | 23.4 µM (inactive) | 34.1 µM (inactive) | 39.7 µM (inactive) | 24 µM (inactive) | 22.2 µM (inactive) | 31.9 µM (inactive) | 23.9 µM (inactive) | 16.6 µM (inactive) | 32.8 µM (inactive) | 34.8 µM (inactive) | 13.4 µM (inactive) | 26.4 µM (inactive) | 77.1 µM (inactive) | 35.2 µM (inactive) | 31.7 µM (inactive) | 43.3 µM (inactive) | 17.7 µM (inactive) | 21.1 µM (inactive) | 48.2 µM (inactive)
7 | Nc1nccc(Nc2ccc(S(N)(=O)=O)cc2)n1 | > 100 µM (inactive) | > 100 µM (inactive) | > 100 µM (inactive) | > 100 µM (inactive) | > 100 µM (inactive) | > 100 µM (inactive) | > 100 µM (inactive) | 35.2 µM (inactive) | > 100 µM (inactive) | > 100 µM (inactive) | > 100 µM (inactive) | > 100 µM (inactive) | > 100 µM (inactive) | > 100 µM (inactive) | > 100 µM (inactive) | > 100 µM (inactive) | > 100 µM (inactive) | > 100 µM (inactive) | > 100 µM (inactive) | > 100 µM (inactive)
